This passage reports MIC results from ChEMBL document CHEMBL4513160, “CO-ADD screening of MMV (CH) - Small Polar Library”.

In brackets after ≈: the same amount, converted by molar mass.

The subject of one experiment is Pseudomonas aeruginosa. Put plainly: Antibacterial activity against Pseudomonas aeruginosa PAO397 [PAO1 d(mexAB-oprM) d(mexCD-oprJ) d(mexEF-oprN) d(mexJKL) d(mexXY) d(opmH)] (CO-ADD:GN_211); MIC in CAMBH media using NBS plates, by OD(600). It is filed as functional. As to conditions: ASSAY_TEST Inhibition of Bacterial Growth, detection method Absorption (OD600), MEDIA CAMHB, plate type 384well, CORNING #3640, time 18 hr.
Consider `Cc1cc(C(=O)Nc2ccc3c(c2)CCN3)n(C)n1`, for which the MIC was greater than 300 µM.

Consider `CNC(=O)CCCNC(=O)Nc1nc2ccccc2s1`, for which the MIC is greater than 300 µM.

In turn, `Cc1cc(NCCO)nc2ccccc12` had an MIC greater than 300 µM.

In turn, `CN(C(=O)CN)c1ccc(-c2ccccc2)cc1` showed an MIC greater than 300 µM.

Compound `CC(=O)Nc1ccc(-c2ccc(C#N)nc2)cc1` came in with an MIC greater than 300 µM.

Regarding `OC1(Cn2ccnn2)CCCNC1` (configuration not stated), the MIC was greater than 300 µM.

The compound `O=C1NC(Cc2ccccc2)C(=O)Nc2ccccc21` (configuration not stated) gave an MIC greater than 300 µM.

In turn, `Cc1ccc(OC(C)CN)cc1` (configuration not stated) yielded an MIC greater than 300 µM.

For `Cn1ccnc1-c1noc(NC(=O)c2ccccn2)n1`, the MIC was greater than 300 µM.

Compound `CS(=O)(=O)CCNc1ccnc2ccc(Br)cc12` returned an MIC greater than 300 µM.

With `CN(C)c1nc(Cl)c(CN)s1`, the MIC was 200 µM (≈ 38.3 µg/mL).

`Cc1c[nH]c2ccccc2c1=N` yielded an MIC greater than 300 µM.

In the case of `CC(N)c1nc(-c2ccc(Br)cc2)c[nH]1` (configuration not stated), the MIC was greater than 300 µM.

For the compound `COc1ccc(F)c(N2CCNCC2)c1`, the MIC is greater than 300 µM.

Turning to `CCC1Oc2c(Cl)cccc2NC1=O` (configuration not stated), the MIC was greater than 300 µM.

For the compound `CCOc1nnc(CN2CCC(C(N)=O)CC2)s1`, the MIC was greater than 300 µM.

Compound `O=C(CSc1ncn[nH]1)Nc1ncc(Br)s1` yielded an MIC greater than 300 µM.

In turn, `NC(=O)CSc1nnc(-c2cc(Br)ccc2O)[nH]1` returned an MIC greater than 300 µM.

Consider `NC(=O)Nc1cccc(C(=O)Nc2ccc(Cl)cn2)c1`, for which the MIC is greater than 300 µM.

As to `CC(C)(N)C(O)c1ccc(Br)cc1` (configuration not stated), the MIC was greater than 300 µM.

Compound `CC(O)CN1C(=O)C=CC1=O` (configuration not stated) had an MIC greater than 300 µM.

`COCCOc1ccc(CNC(=O)c2ccoc2)cn1` displayed an MIC greater than 300 µM.

With `NCc1cnn(-c2ccc(Br)cc2)c1`, the MIC is greater than 300 µM.

The compound `COc1ncccc1-c1csc(NCCSC)n1` gave an MIC greater than 300 µM.

Compound `c1ccc2c(N3CCNCC3)cncc2c1` yielded an MIC greater than 300 µM.

The compound `CNCCC1CCN(c2ccncc2)CC1` returned an MIC greater than 300 µM.

`COc1cccc2c(N)c(C)cnc12` displayed an MIC greater than 300 µM.

As to `Cn1cc(NC(=O)c2ccc(Br)s2)cc1C(N)=O`, the MIC was greater than 300 µM.

`CC(CSc1n[nH]c(-c2ccccn2)n1)CS(C)(=O)=O` (configuration not stated) returned an MIC greater than 300 µM.

The subject of the next experiment is Pseudomonas aeruginosa. Put plainly: microbe, parasite or virus in culture. As to conditions: ATCC 27853, 18 h, ASSAY_TEST Inhibition of Bacterial Growth, detection method Absorption (OD600), MEDIA CAMHB, plate type 384well, NBS, CORNING #3640.
Description: Antibacterial activity against Pseudomonas aeruginosa ATCC 27853 (CO-ADD:GN_042); MIC in CAMBH media using NBS plates, by OD(600)
`Cc1cc(C(=O)Nc2ccc3c(c2)CCN3)n(C)n1` had an MIC greater than 300 µM.

The compound `CNC(=O)CCCNC(=O)Nc1nc2ccccc2s1` had an MIC greater than 300 µM.

`Cc1cc(NCCO)nc2ccccc12`: the MIC is greater than 300 µM.

For the compound `CN(C(=O)CN)c1ccc(-c2ccccc2)cc1`, the MIC is greater than 300 µM.

As to `CC(=O)Nc1ccc(-c2ccc(C#N)nc2)cc1`, the MIC is greater than 300 µM.

Take `OC1(Cn2ccnn2)CCCNC1` (configuration not stated): the MIC was greater than 300 µM.

`O=C1NC(Cc2ccccc2)C(=O)Nc2ccccc21` (configuration not stated): the MIC was greater than 300 µM.

With `Cc1ccc(OC(C)CN)cc1` (configuration not stated), the MIC is greater than 300 µM.

The compound `Cn1ccnc1-c1noc(NC(=O)c2ccccn2)n1` yielded an MIC greater than 300 µM.

As to `CS(=O)(=O)CCNc1ccnc2ccc(Br)cc12`, the MIC was greater than 300 µM.

In the case of `CN(C)c1nc(Cl)c(CN)s1`, the MIC worked out at 200 µM (≈ 38.3 µg/mL).

On to `Cc1c[nH]c2ccccc2c1=N`, for which the MIC was greater than 300 µM.

As for `CC(N)c1nc(-c2ccc(Br)cc2)c[nH]1` (configuration not stated), the MIC was greater than 300 µM.

Take `COc1ccc(F)c(N2CCNCC2)c1`: the MIC was greater than 300 µM.

The compound `CCC1Oc2c(Cl)cccc2NC1=O` (configuration not stated) registered an MIC greater than 300 µM.

As to `CCOc1nnc(CN2CCC(C(N)=O)CC2)s1`, the MIC is greater than 300 µM.

`O=C(CSc1ncn[nH]1)Nc1ncc(Br)s1` displayed an MIC greater than 300 µM.

Turning to `NC(=O)CSc1nnc(-c2cc(Br)ccc2O)[nH]1`, the MIC was greater than 300 µM.

In turn, `NC(=O)Nc1cccc(C(=O)Nc2ccc(Cl)cn2)c1` had an MIC greater than 300 µM.

In the case of `CC(C)(N)C(O)c1ccc(Br)cc1` (configuration not stated), the MIC is greater than 300 µM.

Take `CC(O)CN1C(=O)C=CC1=O` (configuration not stated): the MIC is greater than 300 µM.

Compound `COCCOc1ccc(CNC(=O)c2ccoc2)cn1` yielded an MIC of 60 µM (≈ 16.6 µg/mL).

For the compound `NCc1cnn(-c2ccc(Br)cc2)c1`, the MIC was greater than 300 µM.

With `COc1ncccc1-c1csc(NCCSC)n1`, the MIC was greater than 300 µM.

On to `c1ccc2c(N3CCNCC3)cncc2c1`, for which the MIC was greater than 300 µM.

As to `CNCCC1CCN(c2ccncc2)CC1`, the MIC was greater than 300 µM.

Regarding `COc1cccc2c(N)c(C)cnc12`, the MIC is greater than 300 µM.

The compound `Cn1cc(NC(=O)c2ccc(Br)s2)cc1C(N)=O` returned an MIC greater than 300 µM.

`CC(CSc1n[nH]c(-c2ccccn2)n1)CS(C)(=O)=O` (configuration not stated) displayed an MIC greater than 300 µM.

A further experiment has as its system Acinetobacter baumannii. The experiment can be described thus: microbe, parasite or virus in culture. The settings on record: ATCC 19606, 18 h, ASSAY_TEST Inhibition of Bacterial Growth, detection method Absorption (OD600), MEDIA CAMHB, plate type 384well, NBS, CORNING #3640.
Description: Antibacterial activity against Acinetobacter baumannii ATCC 19606 (CO-ADD:GN_034); MIC in CAMBH media using NBS plates, by OD600
The compound `Cc1cc(C(=O)Nc2ccc3c(c2)CCN3)n(C)n1` registered an MIC greater than 300 µM.

The compound `CNC(=O)CCCNC(=O)Nc1nc2ccccc2s1` gave an MIC greater than 300 µM.

`Cc1cc(NCCO)nc2ccccc12` had an MIC greater than 300 µM.

With `CN(C(=O)CN)c1ccc(-c2ccccc2)cc1`, the MIC is greater than 300 µM.

Consider `CC(=O)Nc1ccc(-c2ccc(C#N)nc2)cc1`, for which the MIC is greater than 300 µM.

In turn, `OC1(Cn2ccnn2)CCCNC1` (configuration not stated) displayed an MIC greater than 300 µM.

In turn, `O=C1NC(Cc2ccccc2)C(=O)Nc2ccccc21` (configuration not stated) showed an MIC greater than 300 µM.

`Cc1ccc(OC(C)CN)cc1` (configuration not stated) registered an MIC greater than 300 µM.

`Cn1ccnc1-c1noc(NC(=O)c2ccccn2)n1` returned an MIC greater than 300 µM.

Regarding `CS(=O)(=O)CCNc1ccnc2ccc(Br)cc12`, the MIC is greater than 300 µM.

`CN(C)c1nc(Cl)c(CN)s1`: the MIC was greater than 300 µM.

Turning to `Cc1c[nH]c2ccccc2c1=N`, the MIC is greater than 300 µM.

`CC(N)c1nc(-c2ccc(Br)cc2)c[nH]1` (configuration not stated) returned an MIC greater than 300 µM.

With `COc1ccc(F)c(N2CCNCC2)c1`, the MIC was greater than 300 µM.

As to `CCC1Oc2c(Cl)cccc2NC1=O` (configuration not stated), the MIC was greater than 300 µM.

For the compound `CCOc1nnc(CN2CCC(C(N)=O)CC2)s1`, the MIC is greater than 300 µM.

Compound `O=C(CSc1ncn[nH]1)Nc1ncc(Br)s1` had an MIC greater than 300 µM.

`NC(=O)CSc1nnc(-c2cc(Br)ccc2O)[nH]1` yielded an MIC greater than 300 µM.

In the case of `NC(=O)Nc1cccc(C(=O)Nc2ccc(Cl)cn2)c1`, the MIC is greater than 300 µM.

In turn, `CC(C)(N)C(O)c1ccc(Br)cc1` (configuration not stated) showed an MIC greater than 300 µM.

`CC(O)CN1C(=O)C=CC1=O` (configuration not stated) had an MIC greater than 300 µM.

`COCCOc1ccc(CNC(=O)c2ccoc2)cn1` displayed an MIC greater than 300 µM.

As to `NCc1cnn(-c2ccc(Br)cc2)c1`, the MIC was greater than 300 µM.

Consider `COc1ncccc1-c1csc(NCCSC)n1`, for which the MIC was greater than 300 µM.

The compound `c1ccc2c(N3CCNCC3)cncc2c1` gave an MIC greater than 300 µM.

Consider `CNCCC1CCN(c2ccncc2)CC1`, for which the MIC was greater than 300 µM.

Consider `COc1cccc2c(N)c(C)cnc12`, for which the MIC was greater than 300 µM.

In turn, `Cn1cc(NC(=O)c2ccc(Br)s2)cc1C(N)=O` yielded an MIC greater than 300 µM.

`CC(CSc1n[nH]c(-c2ccccn2)n1)CS(C)(=O)=O` (configuration not stated) came in with an MIC greater than 300 µM.
